Consider two compounds from patent US20240049720A1, “A SYNERGISTIC AGRICULTURAL COMPOSITION” (priority 2021, published 2024).

The subject of one test is Fusarium spp. Kind of test: In vitro control of Fusarium spp on PDA medium. It is filed as cell-based. Particulars: strain isolated from potato, dose 1 L/400 L water, mixture in 1:1 ratio, 28-30° C, dark, evaluated 7 days later. The protocol: In Vitro Control of Fusarium spp Using Kasugamycin and Copper Glycinate
A strain of Fusarium spp isolated from potato was cultivated was in solid potato dextrose agar medium. The efficacy of the mixture of kasugamycin and copper glycinate in a 1:1 ratio, and each component individually was tested.
(§1) The in vitro assessment of the products effectiveness was carried out as per the treatments discussed in Table 4. Accordingly, the components in each treatment were dissolved in PDA culture medium at the dose indicated above. The mixture was homogenized and poured into sterile petri dishes. Explants of 5 mm diameter of the fungus strain Fusarium spp. were placed on the petri dishes with PDA. The dishes were incubated inverted, in dark conditions at a temperature of 28-30° C. The evaluation of the inhibition of the fungus was carried out 7 days later. Control percentage of Fusarium sp. with the K+CuGly mixture, as well as of kasugamycin and copper monoglycinate separately are provided in Table 5 below: […]

Test [1] deals with Xanthomonas campestris pv. vesicatoria. Kind of test: Foliar application on tomato plants (var. Pony express), control of bacterial disease. It is filed as in vivo. Particulars: foliar spray, three applications every 7 days, kasugamycin 2.1 g/kg and/or copper 8 g/kg (17.32 g/kg copper monoglycinate). The text has this:
Example 3: Foliar Application of Kasugamycin and Copper Glycinate in Tomato Plants (Var. Pony Express) for Controlling Xanthomonas campestris pv. vesicatoria
Tomato plants (var. Pony express) were foliar sprayed with formulations having kasugamycin alone, copper monoglycinate alone, and combination of kasugamycin and copper monoglycinate. The formulation having kasugamycin alone was applied at a dosage of 2.1 g/kg of kasugamycin (2.3 g/kg of kasugamycin hydrochloride hydrate) and the treatment was designated as T1. The formulation having copper monoglycinate was applied at a dosage of 8 g/kg of copper (17.32 g/kg of copper monoglycinate) and the treatment was designated as T2. The formulation having kasugamycin and copper monoglycinate was applied at a dosage of 2.1 g/kg of kasugamycin (2.3 g/kg of kasugamycin hydrochloride hydrate) and 8 g/kg of copper (17.32 g/kg of copper monoglycinate) and the treatment was designated as T3.
Three applications were made every 7 days when the first symptoms of the disease appeared, and the % control of […] was determined. Control percentage of Xanthomonas campestris pv. vesicatoria with the K+CuGly mixture, as well as of kasugamycin and copper glycinate separately are provided in Table 2 below: […]

A further test deals with Alternaria alternata. Briefly: In vitro control of Alternaria alternata on PDA medium. The format is cell-based. Particulars: dose 1 L/400 L water, mixture in 1:1 ratio, 28-30° C, dark, evaluated 7 days later. The protocol:
In Vitro Control of Alternaria alternata Using Kasugamycin and Copper Glycinate
Alternaria alternata was cultivated was in solid potato dextrose agar medium. The efficacy of the mixture of kasugamycin and copper glycinate in a 1:1 ratio, and each component individually was tested.
as §1, with “6.” for “4.”, “Alternaria alternata” for “Fusarium spp.”, “Alternaria alternata” for “Fusarium sp.”

For a further test, the system named is Erwinia amylovora. Briefly: Foliar application on apple trees (var. gala), control of Erwinia amylovora. It is filed as in vivo. Particulars: apple plants var. Gala; foliar spray, three applications every 7 days; kasugamycin 3.15 g/kg and/or copper 8 g/kg (17.32 g/kg copper monoglycinate). The text has this:
Example 4: Foliar Application of Kasugamycin and Copper Glycinate in Apple Trees (var. gala) for Controlling Erwinia amylovora
Apple trees (var. gala) were foliar sprayed with formulations having kasugamycin alone, copper glycinate alone, and combination of kasugamycin and copper glycinate. The formulation having Kasugamycin alone was applied at a dosage of 3.15 g/kg of kasugamycin (3.45 g/kg of kasugamycin hydrochloride hydrate). The formulation having copper monoglycinate was applied at a dosage of 8 g/kg of copper (17.32 g/kg of copper monoglycinate). The formulation having kasugamycin and copper monoglycinate was applied at a dosage of 3.15 g/kg of kasugamycin (3.45 g/kg of kasugamycin hydrochloride hydrate) and 8 g/kg of copper (17.32 g/kg of copper monoglycinate).
Three applications were made every 7 days when the first symptoms of the disease appeared, and the % control of Erwinia amylovora was determined. Control percentage of Erwinia amylovora with the K+CuGly mixture, as well as of kasugamycin and copper monoglycinate separately, are provided in Table 3 below: […]

Consider `C[C@H]1O[C@H](O[C@H]2[C@H](O)[C@@H](O)[C@@H](O)[C@H](O)[C@@H]2O)[C@@H](N)C[C@@H]1NC(=N)C(=O)O` [Kasugamycin], for which the “% control of Fusarium sp.” value with Fusarium spp is reported as 55%. For the same compound, in test [1], the “% control of Xanthomonas campestris pv. vesicatoria” value is recorded as 93.2%. In addition, in the test with Alternaria alternata, the “% Control of Alternaria alternata” value is reported as 79%. For the same compound, the “% control of Erwinia amylovora” value with Erwinia amylovora is given as 55.6%.
On the same counts, the results for Copper monoglycinate [Copper glycinate] are 39%, 80.5%, 53% and 50%.
